In patent US11724992B2 (Novartis AG, priority 2017, dated 2023) one finds IC50 data, which are given here for 39 compounds.

Where only a bound is given, the exact number is not on record here.

A word on the IC50: it is the concentration at which inhibition is half-maximal.

The test system of this experiment is IL-1β production in PMA-differentiated THP-1 cells. The experiment in a line: IL-1β production in PMA-differentiated THP-1 cells stimulated with gramicidin (hTHP-1 assay, 2% fetal bovine serum; Procedures 1-3). To be noted: hTHP-1 assay containing 2% fetal bovine serum; class symbols; read-out: hTHP-1 IC50 (Average IC50 of compounds in hTHP-1 assay). It is filed as cell-based, human. As to the method: The following protocol is suitable for testing the activity of the compounds disclosed herein.
Procedure 1: IL-1β Production in PMA-Differentiated THP-1 Cells Stimulated with Gramicidin
THP-1 cells were purchased from the American Type Culture Collection and sub-cultured according to instructions from the supplier. Cells were cultured in complete RPMI 1640 (containing 10% heat inactivated FBS, penicillin (100 units/ml) and streptomycin (100 μg/ml)), and maintained in log phase prior to experimental setup. Prior to the experiment, compounds were dissolved in dimethyl sulfoxide (DMSO) to generate a 30 mM stock. The compound stock was first pre-diluted in DMSO to 3, 0.34, 0.042 and 0.0083 mM intermediate concentrations and subsequently spotted using Echo550 liquid handler into an empty 384-well assay plate to achieve desired final concentration (e.g. 100, 33, 11, 3.7, 1.2, 0.41, 0.14, 0.046, 0.015, 0.0051, 0.0017 μM). DMSO was backfilled in the plate to achieve a final DMSO assay concentration of 0.37%. The plate was then sealed and stored at room temperature until required.
THP-1 cells were treated with PMA (Phorbol 12-myristate 13-acetate) (20 ng/ml) for 16-18 hours. On the day of the experiment the media was removed and adherent cells were detached with trypsin for 5 minutes. Cells were then harvested, washed with complete RPMI 1640, spun down, and resuspended in RPMI 1640 (containing 2% heat inactivated FBS, penicillin (100 units/ml) and streptomycin (100 μg/ml). The cells were plated in the 384-well assay plate containing the spotted compounds at a density of 50,000 cells/well (final assay volume 50 μl). Cells were incubated with compounds for 1 hour and then stimulated with gramicidin (5 μM) (Enzo) for 2 hours. Plates were then centrifuged at 340 g for 5 min. Cell free supernatant (40 μL) was collected using a 96-channel PlateMaster (Gilson) and the production of IL-1β was evaluated by HTRF (cisbio). The plates were incubated for 18 h at 4° C. and read using the preset HTRF program (donor emission at 620 nm, acceptor emission at 668 nm) of the SpectraMax i3x spectrophotometer (Molecular Devices, software SoftMax 6). A vehicle only control and a dose titration of CRID3 (100-0.0017 μM) were run concurrently with each experiment.
Procedure 2: IL-1β Production in PMA-Differentiated THP-1 Cells Stimulated with Gramicidin
THP-1 cells were purchased from the American Type Culture Collection and sub-cultured according to instructions from the supplier. Prior to experiments, cells were cultured in complete RPMI 1640 (containing 10% heat inactivated FBS, penicillin (100 units/ml) and streptomycin (100 μg/ml)), and maintained in log phase prior to experimental setup. Prior to the experiment THP-1 were treated with PMA (Phorbol 12-myristate 13-acetate) (20 ng/ml) for 16-18 hours. Compounds were dissolved in dimethyl sulfoxide (DMSO) to generate a 30 mM stock. On the day of the experiment the media was removed and adherent cells were detached with trypsin for 5 minutes. Cells were then harvested, washed with complete RPMI 1640, spun down, resuspended in RPMI 1640 (containing 2% heat inactivated FBS, penicillin (100 units/ml) and streptomycin (100 μg/ml). The cells were plated in a 384-well plate at a density of 50,000 cells/well (final assay volume 50 μl). Compounds were first dissolved in assay medium to obtain a 5× top concentration of 500 μM. 10 step dilutions (1:3) were then undertaken in assay medium containing 1.67% DMSO. 5× compound solutions were added to the culture medium to achieve desired final concentration (e.g. 100, 33, 11, 3.7, 1.2, 0.41, 0.14, 0.046, 0.015, 0.0051, […]). Final DMSO concentration was at 0.37%. Cells were incubated with compounds for 1 hour and then stimulated with gramicidin (5 μM) (Enzo) for 2 hours. Plates were then centrifuged at 340 g for 5 min. Cell free supernatant (40 μL) was collected using a 96-channel PlateMaster (Gilson) and the production of IL-1β was evaluated by HTRF (cisbio). […]
Take `Cc1oc(S(N)(=O)=NC(=O)Nc2c(C(C)C)cc(F)cc2C(C)C)cc1C(C)(C)O` (single isomer, unassigned) [Example 79]: the IC50 fell in the range of 8 to 40 nM. As for `Cc1oc(S(N)(=O)=NC(=O)Nc2c(C(C)C)cc(F)cc2C(C)C)cc1C(C)(C)O` (single isomer, unassigned) [Example 80], the IC50 lay in the range of 200 to 1000 nM. Consider `Cc1oc(S(N)(=O)=NC(=O)Nc2c(C(C)C)cc(C#N)c(F)c2C(C)C)cc1C(C)(C)O` (single isomer, unassigned) [Example 81], for which the IC50 was 8 to 40 nM.

Turning to `Cc1oc(S(N)(=O)=NC(=O)Nc2c(C(C)C)cc(C#N)c(F)c2C(C)C)cc1C(C)(C)O` (single isomer, unassigned) [Example 82], the IC50 fell in the range of 200 to 1000 nM.

As to `Cc1sc(S(N)(=O)=NC(=O)Nc2c3c(cc4c2CCC4)CCC3)cc1C(C)(C)O` (single isomer, unassigned) [Example 85], the IC50 fell in the range of 8 to 40 nM. On to `Cc1sc(S(N)(=O)=NC(=O)Nc2c3c(cc4c2CCC4)CCC3)cc1C(C)(C)O` (single isomer, unassigned) [Example 86], for which the half-maximal inhibitory concentration (IC50) lay within 200 to 1000 nM.

For `CC(C)(O)c1ccc(S(N)(=O)=NC(=O)Nc2c3c(cc4c2CCC4)CCC3)c(F)c1` (single isomer, unassigned) [Example 87], the IC50 lay in the range of 40 to 200 nM. As for `CC(C)(O)c1ccc(S(N)(=O)=NC(=O)Nc2c3c(cc4c2CCC4)CCC3)c(F)c1` (single isomer, unassigned) [Example 88], the IC50 was in the range of 1000 to 5000 nM. `CC(C)(O)c1csc(S(N)(=O)=NC(=O)Nc2c3c(c(Cl)c4c2CCC4)CCC3)c1` (single isomer, unassigned) [Example 89]: the IC50 was 8 to 40 nM. Turning to `CC(C)(O)c1csc(S(N)(=O)=NC(=O)Nc2c3c(c(Cl)c4c2CCC4)CCC3)c1` (single isomer, unassigned) [Example 90], the IC50 was in the range of 200 to 1000 nM. On to `CC(C)c1cc(C#N)c(F)c(C(C)C)c1NC(=O)N=S(N)(=O)c1cnc(C(C)(C)O)s1` (single isomer, unassigned) [Example 91], for which the IC50 lay in the range of 40 to 200 nM. As for `CC(C)c1cc(C#N)c(F)c(C(C)C)c1NC(=O)N=S(N)(=O)c1cnc(C(C)(C)O)s1` (single isomer, unassigned) [Example 92], the IC50 lay in the range of 1000 to 5000 nM. Turning to `CC(C)n1ccc(S(N)(=O)=NC(=O)Nc2c3c(cc4c2CCC4)CCC3)n1` (single isomer, unassigned) [Example 94], the IC50 lay in the range of 1000 to 5000 nM. For the compound `CC(C)c1cc(OC(F)F)cc(C(C)C)c1NC(=O)N=S(N)(=O)c1sc(C(C)(C)O)cc1F` (single isomer, unassigned) [Example 95], the IC50 was below 8 nM. Turning to `CC(C)c1cc(OC(F)F)cc(C(C)C)c1NC(=O)N=S(N)(=O)c1sc(C(C)(C)O)cc1F` (single isomer, unassigned) [Example 96], the IC50 was in the range of 200 to 1000 nM.

As for `CCc1cc(OC(F)F)cc(C(C)C)c1NC(=O)N=S(N)(=O)c1cnc(C(C)(C)O)s1` (single isomer, unassigned) [Example 97], the IC50 was in the range of 40 to 200 nM.

With `CCc1cc(OC(F)F)cc(C(C)C)c1NC(=O)N=S(N)(=O)c1cnc(C(C)(C)O)s1` (single isomer, unassigned) [Example 98], the IC50 lay within 5000 to 30000 nM. For `Cc1cc(C(C)(C)O)ccc1S(N)(=O)=NC(=O)Nc1c2c(cc3c1CCC3)CCC2` (single isomer, unassigned) [Example 99], the IC50 fell in the range of 200 to 1000 nM.

Consider `Cc1cc(C(C)(C)O)ccc1S(N)(=O)=NC(=O)Nc1c2c(cc3c1CCC3)CCC2` (single isomer, unassigned) [Example 100], for which the IC50 was 5000 to 30000 nM. With `CC(C)c1cc(OC(F)F)cc(C2CC2)c1NC(=O)N=S(N)(=O)c1cnc(C(C)(C)O)s1` (single isomer, unassigned) [Example 101], the IC50 fell in the range of 40 to 200 nM. As for `CC(C)c1cc(OC(F)F)cc(C2CC2)c1NC(=O)N=S(N)(=O)c1cnc(C(C)(C)O)s1` (single isomer, unassigned) [Example 102], the IC50 lay within 1000 to 5000 nM. Take `CC(C)c1cc(F)cc(C(C)C)c1NC(=O)N=S(N)(=O)c1cnc(C(C)(C)O)s1` (single isomer, unassigned) [Example 103]: the concentration for half-maximal inhibition (IC50) was 40 to 200 nM.

For `CC(C)c1cc(F)cc(C(C)C)c1NC(=O)N=S(N)(=O)c1cnc(C(C)(C)O)s1` (single isomer, unassigned) [Example 104], the IC50 fell in the range of 1000 to 5000 nM. Next, `CC(C)c1cc(F)cc(C(C)C)c1NC(=O)N=S(N)(=O)c1cccc(C(C)(C)O)c1` (single isomer, unassigned) [Example 105]: 200 to 1000 nM; `CC(C)c1cc(F)cc(C(C)C)c1NC(=O)N=S(N)(=O)c1cccc(C(C)(C)O)c1` (single isomer, unassigned) [Example 106]: 5000 to 30000 nM; `CC(C)c1c(F)c(C#N)cc(C2CC2)c1NC(=O)N=S(N)(=O)c1cnc(C(C)(C)O)s1` (single isomer, unassigned) [Example 107]: 5000 to 30000 nM. `CC(C)c1c(F)c(C#N)cc(C2CC2)c1NC(=O)N=S(N)(=O)c1cnc(C(C)(C)O)s1` (single isomer, unassigned) [Example 108]: the IC50 lay within 40 to 200 nM. Next, `CC(C)c1cc(OC(F)F)cc(C(C)C)c1NC(=O)N=S(N)(=O)c1cnc(C(C)(C)O)s1` (single isomer, unassigned) [Example 111]: 40 to 200 nM; `CC(C)c1cc(OC(F)F)cc(C(C)C)c1NC(=O)N=S(N)(=O)c1cnc(C(C)(C)O)s1` (single isomer, unassigned) [Example 112]: 5000 to 30000 nM. Regarding `CC(C)(O)c1csc(S(N)(=O)=NC(=O)Nc2c3c(c(C#N)c4c2CCC4)CCC3)c1` (single isomer, unassigned) [Example 113], the IC50 was 8 to 40 nM. For `CC(C)(O)c1csc(S(N)(=O)=NC(=O)Nc2c3c(c(C#N)c4c2CCC4)CCC3)c1` (single isomer, unassigned) [Example 114], the IC50 lay within 1000 to 5000 nM.

As to `CC(C)(O)c1ncc(S(N)(=O)=NC(=O)Nc2c3c(c(OC(F)F)c4c2CCC4)CCC3)s1` (single isomer, unassigned) [Example 115], the IC50 lay within 1000 to 5000 nM. For `CC(C)(O)c1ncc(S(N)(=O)=NC(=O)Nc2c3c(c(OC(F)F)c4c2CCC4)CCC3)s1` (single isomer, unassigned) [Example 116], the IC50 lay in the range of 40 to 200 nM. In the case of `CN(C)Cc1ccc(S(N)(=O)=NC(=O)Nc2c3c(cc4c2CCC4)CCC3)cc1` (single isomer, unassigned) [Example 117], the IC50 was 40 to 200 nM. For the compound `CN(C)Cc1ccc(S(N)(=O)=NC(=O)Nc2c3c(cc4c2CCC4)CCC3)cc1` (single isomer, unassigned) [Example 118], the IC50 was in the range of 1000 to 5000 nM. With `CC(C)(O)c1cc(F)c(S(N)(=O)=NC(=O)Nc2c3c(c(F)c4c2CCC4)CCC3)s1` (single isomer, unassigned) [Example 121] the figure was 8 to 40 nM; with `CC(C)(O)c1cc(F)c(S(N)(=O)=NC(=O)Nc2c3c(c(F)c4c2CCC4)CCC3)s1` (single isomer, unassigned) [Example 122], 200 to 1000 nM; with `Cc1oc(S(N)(=O)=NC(=O)Nc2c3c(cc4c2CCC4C)CCC3)cc1C(C)(C)O` (single isomer, unassigned) [Example 123], 40 to 200 nM. With `Cc1oc(S(N)(=O)=NC(=O)Nc2c3c(cc4c2CCC4C)CCC3)cc1C(C)(C)O` (single isomer, unassigned) [Example 124] the figure was 1000 to 5000 nM.
